In one series the test system is MV4-11 xenograft. Kind of series: MV4-11 xenograft in immunocompromised mice. It is filed as in vivo. The gist of the method: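 MV4-11 leukemic cells engrafted in NOD/scid or SCID/beige mice; oral dosing started at tumor volume approx. 50-200 mm^3, daily QD or BID for 2-3 weeks. Efficacy read as tumor growth inhibition (TGI), tolerability as body weight change (ΔBW).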

For another series, the system named is SW-480 cells. Kind of series: Growth inhibition, MTS assay, SW-480. As to conditions: 72 hours, MTS cell viability, read-out: SW-480 ED50. It is filed as cell-based, Human. For orientation: Tetrazolium assays rely on reduction of a dye to a coloured formazan, in cell work by metabolically active cells.
For the next series, the system named is MOLM16 cells. Kind of series: Growth inhibition, MTS assay, MOLM16. It is filed as cell-based, Human. As to conditions: MTS cell viability, read-out: MOLM 16 ED50.
In another series the test system is Jeko-1 cells. Kind of series: Growth inhibition, MTS assay, Jeko-1. It is filed as cell-based, Human. The settings on record: 72 hours, MTS cell viability, read-out: Jeko-1 ED50.
A further series concerns the target hERG potassium channel (Homo sapiens (Human), UniProt Q12809). Description: hERG automated patch clamp assay (QPatch HT). The gist of the method: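 Automated whole-cell patch clamp of hERG current in mammalian cells at room temperature. Compounds applied at 0.1, 1, 3, 10 and 30 μM, 3 min per concentration, n≥2 cells each.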
In general terms: The hERG channel carries a current that helps repolarise heart muscle cells.

For a further series, the system named is MOLM13 cells. Description: Growth inhibition, MTS assay, MOLM13. It is filed as cell-based, Human. The settings on record: 72 hours, MTS cell viability, read-out: MOLM 13 ED50.
For a further series, the system named is FLT3-ITD. Description: ADP-Glo Kinase Assay, Flt3 ITD. It is filed as biochemical, Human. The settings on record: 1 μM compound. As to the method: Compounds of the present invention were tested for their inhibitory activity against Pim-1, Pim-2, Pim-3, Flt3 wt, Flt3 ITD, CDK2/E and DYRK1. The testing of the compounds was carried out using the ADP-Glo™ Kinase Assay from Promega Corporation (Madison, Wis., USA).
The ADP-Glo™ Kinase Assay is a luminescent ADP detection assay to measure kinase activity by quantifying the amount of ADP produced during a kinase reaction. The kinase assay is performed in kinase assay buffer (5 mM MOPS, pH 7.5, 5 mM MgCl2, 0.4 mM EDTA, 1.5 mM DTT). Test samples initially dissolved in DMSO at 10 mM were diluted with the assay buffer to 1000 nM. A 30 μL volume/well of a mixture of substrates containing ATP (final ATP concentration in each kinase assay was equal to its apparent ATP Km).
The assay was performed in two steps: first, after the kinase reaction, an equal volume of ADP-Glo™ Reagent was added to terminate the kinase reaction and deplete the remaining ATP. Second, the Kinase Detection Reagent was added to simultaneously convert ADP to ATP and allowed the newly synthesized ATP to be measured using a luciferase/luciferin reaction. The luminescent signal generated was proportional to the ADP concentration produced and was correlated with kinase activity. A microplate spectrophotometer (Synergy 2 multi-mode microplate reader [BioTek]) was used for detecting the luminescence. The data was normalized and the percent of inhibition was obtained according to the following equation: […]
A general note: In ADP-Glo the light output rises with the ADP produced.

A further series has as its system HEL92 cells. Kind of series: Growth inhibition, MTS assay, HEL92. Type of series: cell-based, Human. As to conditions: MTS cell viability, read-out: HEL92 ED50.
The next series has as its system KG-1 cells. Description: Growth inhibition, MTS assay, KG-1. Type of series: cell-based, Human. The settings on record: 72 hours, MTS cell viability. The source says:
The following cell lines, were obtained and used in tests as outlined below: • Human myelomonocytic, biphenotypic leukemia MV4-11 cells (harboring a Flt3-ITD mutation); • Human Acute Myeloid Leukemia MOLM16 cells; • Human Acute Myeloid Leukemia MOLM13 cells (harboring a Flt3-ITD mutation); • Human Myeloid Leukemia KG-1 cells; • Human erythroleukemia HEL92 cells; • Human mantle cell lymphoma Jeko-1 cells; • Human hepatocellular carcinoma HepG2 cells; and • Human colon adenocarcinoma SW-480 cells.
The assays were carried out according to the following protocol, which is described as an example for the MV4-11 cells:
Ten thousand MV4-11 cells were inoculated into each well of a 96-well microplate (manufactured by Corning Corp.) using Iscove's MDM medium (culture medium) containing 10% fetal calf serum (FCS). The same day, a dimethyl sulfoxide (DMSO) solution of each test compound prepared in a concentration of 10 mmol/L was further diluted with DMSO to the desired concentrations (0.1, 0.5, 1, 2.5, 5 and 10 micromol/L), and the diluted solution was added to each well. The individual wells were further cultured in 5% carbon dioxide at 37° C. for 72 hours. […] Briefly, 10 μl MTS (3-(4,5-Dimethyl-2-thiazolyl)-5-(carboxymethoxyphenyl)-2-(4-sulfophenyl)-2H-tetrazolium was added to each well, and culturing was performed in 5% carbon dioxide at 37° C. for 2 hours. After this incubation and using a microplate spectrophotometer (Synergy 2 multi-mode microplate reader (BioTek)), the absorbance of each well was measured at 490 nm. The value for cells not incubated with a test compound was designated as 100%. By comparing these values with the absorbance difference obtained at the well in which each test compound was added, the cell viability (% viability) after treatment with the test compound was calculated.

[1] abbreviates: MV4-11 xenograft, oral, 75 mg/Kg BID.
Where [2] appears, read: MV4-11 xenograft, oral, doses as in Table 3.
The mark [3] stands for this setting: MV4-11 xenograft, oral, 100 mg/Kg QD.
[4] abbreviates: MV4-11 xenograft, oral, 150 mg/Kg QD.
Where [5] appears, read: MV4-11 xenograft, oral, 150 mg/Kg BID.

These results are taken from US10174013B2, “Benzimidazole derivatives as kinase inhibitors” (SELVITA S.A., priority 2012, dated 2019).

Where a name gives a salt, the structure may show the parent alone. Read-outs that look alike come from different tables or passages of the source. Some results are limits rather than exact numbers.

Chain of hERG potassium channel (Q12809 whole entry): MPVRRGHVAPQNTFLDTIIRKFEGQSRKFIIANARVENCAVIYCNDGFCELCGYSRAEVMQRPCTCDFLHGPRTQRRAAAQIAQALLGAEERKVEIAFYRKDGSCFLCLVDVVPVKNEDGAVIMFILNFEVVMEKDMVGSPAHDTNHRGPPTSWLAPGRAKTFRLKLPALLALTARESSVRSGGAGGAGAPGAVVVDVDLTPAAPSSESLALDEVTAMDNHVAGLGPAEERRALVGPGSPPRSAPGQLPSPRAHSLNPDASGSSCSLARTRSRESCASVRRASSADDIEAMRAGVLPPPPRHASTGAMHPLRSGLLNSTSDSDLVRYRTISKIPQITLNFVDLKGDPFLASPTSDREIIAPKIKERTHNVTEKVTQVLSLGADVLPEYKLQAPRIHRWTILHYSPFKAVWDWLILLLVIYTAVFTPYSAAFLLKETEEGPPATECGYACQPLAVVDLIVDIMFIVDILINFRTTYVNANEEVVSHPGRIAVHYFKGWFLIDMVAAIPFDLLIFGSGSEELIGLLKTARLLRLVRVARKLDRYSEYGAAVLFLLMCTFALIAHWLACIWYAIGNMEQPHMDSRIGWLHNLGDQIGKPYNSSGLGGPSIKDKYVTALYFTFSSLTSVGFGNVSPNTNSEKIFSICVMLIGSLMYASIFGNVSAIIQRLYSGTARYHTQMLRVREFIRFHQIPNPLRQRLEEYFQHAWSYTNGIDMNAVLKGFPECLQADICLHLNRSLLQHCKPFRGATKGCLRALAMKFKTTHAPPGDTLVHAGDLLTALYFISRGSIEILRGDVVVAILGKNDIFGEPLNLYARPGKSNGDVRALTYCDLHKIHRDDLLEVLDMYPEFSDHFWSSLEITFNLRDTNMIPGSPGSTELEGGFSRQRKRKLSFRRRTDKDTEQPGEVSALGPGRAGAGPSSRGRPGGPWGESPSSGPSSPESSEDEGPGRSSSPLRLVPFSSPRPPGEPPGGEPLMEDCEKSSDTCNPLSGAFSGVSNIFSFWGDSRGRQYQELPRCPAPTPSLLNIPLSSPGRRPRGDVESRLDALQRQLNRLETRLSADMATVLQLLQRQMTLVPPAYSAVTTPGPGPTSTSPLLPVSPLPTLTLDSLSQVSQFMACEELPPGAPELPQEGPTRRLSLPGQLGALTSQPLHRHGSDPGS

For the compound `CCn1c(N2CCNCC2)nc2c([N+](=O)[O-])c(Br)c(Br)cc21` [Example 1A, 5,6-dibromo-1-ethyl-4-nitro-2-(piperazin-1-yl)-1H-1,3-benzodiazole hydrochloride], the “TGI (tumor growth inhibition)” value is 73% in the series on MV4-11 xenograft (setting [1]) and “more than 70%” in the series on MV4-11 xenograft (setting [2]). The “ΔBW (body weight change)” value in the series on MV4-11 xenograft (setting [1]) was determined as 5.4%. The IC50 in the series on SW-480 cells (Homo sapiens, SW480) came out at 2500 nM; in the series on MOLM16 cells (Homo sapiens, MOLM16, 72 hours), 500 nM; in the series on Jeko-1 cells (Homo sapiens, JeKo-1) it was 800 nM; against hERG potassium channel (human, 3 min), 1600 nM; with MOLM13 cells (Homo sapiens, MOLM-13) it was 700 nM; in the series with HEL92 cells (Homo sapiens, 72 hours), 2600 nM. The “Flt3ITD % INH (1 μM)” value with FLT3-ITD is recorded as 81%.
As for `CC(C)n1c(N2CCNC[C@H]2C)nc2c([N+](=O)[O-])c(Br)c(Br)cc21` [Example 1AX], the entries for the “TGI (tumor growth inhibition)” value in the series on MV4-11 xenograft (setting [3]) and in the series with MV4-11 xenograft (setting [2]) were 97% and “exceeding 97%”, respectively. Besides, in the series with MV4-11 xenograft (setting [3]), the “ΔBW (body weight change)” value is listed as −2.2%. In addition, the IC50 in the series with MOLM16 cells (72 hours) is 20 nM; in the series on Jeko-1 cells it was above 100 nM; against hERG potassium channel it was 1230 nM; with MOLM13 cells, 60 nM; in the series on HEL92 cells (72 hours) it was 100 nM. For the same compound, the “Flt3ITD % INH (1 μM)” value in the series on FLT3-ITD came to 96%. In addition, the “KG-1 ED50” value with KG-1 cells worked out at 120 nM.
In the case of `CC(C)n1c(N2CC[C@@H](N)C2)nc2c(C#N)c(Br)c(Br)cc21` [Example 1BI], the results for the “TGI (tumor growth inhibition)” value in the series with MV4-11 xenograft (setting [4]) and in the series with MV4-11 xenograft (setting [2]) were 87% and “above 87%”, respectively. Also, in the series on MV4-11 xenograft (setting [4]), the “ΔBW (body weight change)” value came out at 3.8%. Also, the IC50 in the series on MOLM16 cells (Homo sapiens, MOLM16, 72 h) came out at 80 nM; with Jeko-1 cells (Homo sapiens, JeKo-1) it was 700 nM; against hERG potassium channel (human, 3 min) it was 5170 nM; in the series on MOLM13 cells (Homo sapiens, MOLM-13), 3250 nM; in the series with HEL92 cells (Homo sapiens, 72 h), 5100 nM. In the series with KG-1 cells, the “KG-1 ED50” value was found to be 90 nM.
With `CCCn1c(N2CCNCC2)nc2c([N+](=O)[O-])c(Br)c(Br)cc21` [Example 1M], the “TGI (tumor growth inhibition)” value with MV4-11 xenograft (setting [5]) is 76%; in the series with MV4-11 xenograft (setting [2]), “more than 70%”. Besides, in the series on MV4-11 xenograft (setting [5]), the “ΔBW (body weight change)” value is 9.2%. Also, the IC50 with SW-480 cells is 2100 nM; against hERG potassium channel it was 520 nM; in the series with HEL92 cells (72 hours), 2200 nM.
As for `CC(C)n1c(N2CCNCC2)nc2c([N+](=O)[O-])c(Br)c(Br)cc21` [Example 2A, 5,6-dibromo-4-nitro-2-(piperazin-1-yl)-1-(propan-2-yl)-1H-1,3-benzodiazole hydrochloride], the “TGI (tumor growth inhibition)” value is 99% in the series with MV4-11 xenograft (setting [4]) and “exceeding 97%” in the series on MV4-11 xenograft (setting [2]). The “ΔBW (body weight change)” value in the series on MV4-11 xenograft (setting [4]) is listed as −4.4%. The IC50 in the series with SW-480 cells (Homo sapiens, SW480) is 800 nM; in the series on MOLM16 cells (Homo sapiens, MOLM16, 72 h), 140 nM; with Jeko-1 cells (Homo sapiens, JeKo-1) it was 400 nM; at hERG potassium channel, 3060 nM; in the series on MOLM13 cells (Homo sapiens, MOLM-13), 250 nM; with HEL92 cells (Homo sapiens, 72 h) it was 700 nM. Also, in the series on KG-1 cells, the “KG-1 ED50” value turned out to be 630 nM.
`Cl.O=[N+]([O-])c1c(Br)c(Br)cc2c1nc(N1CCNCC1)n2C1CCCC1` [Example 2D, 5,6-dibromo-1-cyclopentyl-4-nitro-2-(piperazin-1-yl)-1H-1,3-benzodiazole hydrochloride]: the “TGI (tumor growth inhibition)” value with MV4-11 xenograft (setting [4]) is 88%; in the series with MV4-11 xenograft (setting [2]) it was “above 87%”. In the series on MV4-11 xenograft (setting [4]), the “ΔBW (body weight change)” value is on record as −3.5%. Further, the IC50 is 600 nM with SW-480 cells (Homo sapiens, SW480); 1600 nM at hERG potassium channel; 4700 nM in the series with HEL92 cells (Homo sapiens, 72 h).
Take `CC(C)n1c(C2CCNCC2)nc2c([N+](=O)[O-])c(Br)c(Br)cc21` [Example 26A, 5,6-dibromo-4-nitro-2-(piperidin-4-yl)-1-(propan-2-yl)-1H-1,3-benzodiazole]: the “ΔBW (body weight change)” value is given as −6% in the series with MV4-11 xenograft (MV-4-11 xenograft, 26A 25 mg/Kg BID) and −3% in the series on MV4-11 xenograft (MV-4-11 xenograft, 26A 50 mg/Kg BID). The “TGI (tumor growth inhibition)” value in the series on MV4-11 xenograft (MV-4-11 xenograft, 26A 25 mg/Kg BID, 15 days) turned out to be 77%; in the series on MV4-11 xenograft (MV-4-11 xenograft, 26A 50 mg/Kg BID, 15 days), 87%. The IC50 in the series with MOLM16 cells (Homo sapiens, MOLM16, 72 h) was determined as 220 nM; in the series on Jeko-1 cells (Homo sapiens, JeKo-1) it was 300 nM; with MOLM13 cells (Homo sapiens, MOLM-13), 320 nM; in the series on HEL92 cells (Homo sapiens, 72 h), 900 nM. For the same compound, in the series on FLT3-ITD, the “Flt3ITD % INH (1 μM)” value was 93%. The “KG-1 ED50” value in the series with KG-1 cells worked out at 470 nM.
